Structures can show the parent of a compound that is named as a salt.
Assay: HILIC, Merck SeQuant ZIC-HILIC, 25 °C, 0.25 mL/min; A: water + 16 mM ammonium formate; B: acetonitrile + 0.1% formic acid, pH 3; gradient (min/%B) 0/97 2/97 10/70 15/10 17/10 18/97 25/97
Details: stereoisomer not certain

LC retention time	SMILES
11.6 min	CCC(C)C(N)C(=O)O (configuration not stated) [ISOLEUCINE]
15.2 min	Nc1nc2c(ncn2C2CC(O)C(COP(=O)(O)OP(=O)(O)O)O2)c(=O)[nH]1 (configuration not stated) [DGDP]
13.8 min	Cc1cc2nc3c(=O)[nH]c(=O)nc-3n(CC(O)C(O)C(O)COP(=O)(O)OP(=O)(O)OCC3OC(n4cnc5c(N)ncnc54)C(O)C3O)c2cc1C (configuration not stated) [FAD]
13.8 min	O=C(O)C(=O)CS [MERCAPTOPYRUVATE]
11.2 min	NC(=O)NC1NC(=O)NC1=O (configuration not stated) [ALLANTOIN]
16 min	NC(N)=NCCC[C@H](N)C(=O)O [L-Arginine]
9.58 min	O=C(O)CC(CC(=O)O)C(=O)O [Tricarballylic acid]
9.21 min	CCCCCCCCC=CCCCCCCCC(=O)OCC(O)COP(=O)(O)O (configuration not stated) [18-1_LysoPA]
15.7 min	O=C(O)C(COP(=O)(O)O)OP(=O)(O)O [2-3-DIPHOSPHO-D-GLYCERIC ACID]
2.1 min	CC(C)(CCC(=O)O)C(=O)O [2-2-Dimethylglutaric acid]
2.75 min	CC(O)C(=O)O (configuration not stated) [LACTATE]
10.4 min	O=c1[nH]c(=O)c2ncn(C3OC(CO)C(O)C3O)c2[nH]1 (configuration not stated) [XANTHOSINE]
2.05 min	CC(=O)C1CCC2C3CC=C4CC(OS(=O)(=O)O)CCC4(C)C3CCC12C (configuration not stated) [pregnenolone sulfate]
5.6 min	O=C(O)Cc1ccc(O)c(O)c1 [3-4-DIHYDROXYPHENYLACETATE]
2.14 min	Cn1c(=O)[nH]c2nc[nH]c2c1=O [1-Methylxanthine]
15.6 min	C[N+](C)(C)CCOP(=O)(O)O [PHOSPHORYLCHOLINE]
2.11 min	CC(C)C(=O)O [ISOBUTYRATE]
1.87 min	CCCCC(O)C(=O)O (configuration not stated) [2-hydroxycaproic acid]
15 min	O=c1ccn(C2OC(COP(=O)(O)OP(=O)(O)O)C(O)C2O)c(=O)[nH]1 (configuration not stated) [URIDINE 5'-DIPHOSPHATE]

LC retention time	SMILES
2.16 min	Nc1cc([O-])cc(C(=O)O)c1 [3-AMINO-5-HYDROXYBENZOATE]
1.85 min	OC1CCCCC1O (stereo not drawn) [TRANS-CYCLOHEXANEDIOL]
8.77 min	O=c1[nH]cnc2nc[nH]c12 [HYPOXANTHINE]
13.3 min	NC(CCOC(=O)CCC(=O)O)C(=O)O (configuration not stated) [O-SUCCINYL-HOMOSERINE]
2.15 min	O=C(O)c1cccc(O)c1 [3-HYDROXYBENZOATE]
8.8 min	Nc1ncccc1C(=O)O [2-Aminopyridine-3-carboxylic acid]
2.18 min	CC(CCC(=O)O)C1CCC2C3C(O)CC4CC(O)CCC4(C)C3CC(O)C12C (configuration not stated) [CHOLATE]
1.81 min	C=Cc1c(C)c2cc3[nH]c(cc4nc(cc5nc(cc1[nH]2)C(C)=C5CCC(=O)O)C(CCC(=O)O)=C4C)c(C)c3C=C [PROTOPORPHYRIN]
2.08 min	O=C([O-])C(O)c1ccccc1 (configuration not stated) [MANDELATE]
14.4 min	NC(CS(=O)O)C(=O)O (configuration not stated) [3-SULFINOALANINE]
2.15 min	Nc1c(O)cccc1C(=O)O [3-HYDROXYANTHRANILATE]
14.5 min	NC(=O)NCCCC(N)C(=O)O (configuration not stated) [CITRULLINE]
1.94 min	Cc1cc2nc3[nH]c(=O)[nH]c(=O)c3nc2cc1C [LUMICHROME]
1.73 min	CC1C(=O)Nc2ccccc21 (configuration not stated) [3-METHYL-2-OXINDOLE]
1.61 min	COC(=O)Cc1c[nH]c2ccccc12 [INDOLE-3-METHYL ACETATE]
14.2 min	O=C(O)C(O)C(O)C(=O)O (configuration not stated) [TARTRATE D]
2.87 min	CC(=O)NCCCC(=O)O [4-ACETAMIDOBUTANOATE]
1.66 min	O=C(O)CCCCC1CCSS1 (racemic)
11.7 min	NC(=O)[C@@H](N)Cc1c[nH]c2ccccc12 [L-TRYPTOPHANAMIDE]

LC retention time	SMILES
15.8 min	Cn1cnc(C[C@H](N)C(=O)O)c1 [1-METHYL-L-HISTIDINE]
11.4 min	Nc1ncnc2c1ncn2C1OC(CO)C2OP(=O)(O)OC21 (configuration not stated) [ADENOSINE 2'-3'-CYCLIC PHOSPHATE]
1.53 min	COC1=C(OC)C(=O)C(CC=C(C)C)=C(C)C1=O [coenzyme Q1]
15 min	[NH3+]CC(=O)N1CCCC1C(=O)[O-] (configuration not stated) [Gly-Pro]
14.1 min	NCCC(=O)O [BETA-ALANINE]
2.16 min	O=c1ccc2cc(O)ccc2[nH]1 [2-6-quinolinediol]
16.4 min	Cc1ncc(C[n+]2csc(CCOP(=O)(O)O)c2C)c(N)n1 [THIAMINE MONOPHOSPHATE]
2.04 min	O=C(O)/C=C/c1c[nH]c2ccccc12 [trans-3-indoleacrylic acid]
16.9 min	NCCS [CYSTEAMINE]
10.6 min	CC1OC(OCC2OC(Oc3c(-c4ccc(O)c(O)c4)oc4cc(O)cc(O)c4c3=O)C(O)C(O)C2O)C(O)C(O)C1O (configuration not stated) [rutin hydrate]
10.1 min	OCC1OCC(O)C(O)C1O [1-5-Anhydro-D-sorbitol]
2.13 min	O=C(O)CCCC(=O)O [GLUTARATE]
1.58 min	CC(=O)C1CCC2C3CCC4=CC(=O)CCC4(C)C3CCC12C (configuration not stated) [Progesterone]
1.55 min	C=C1CCC(O)CC1=CC=C1CCCC2(C)C1CCC2C(C)C=CC(C)C(C)C (configuration not stated) [VITAMIN D2]
8.23 min	Cc1ncc(CO)c(C=O)c1O [PYRIDOXAL]
2.15 min	CC(=O)NC(Cc1c[nH]c2ccccc12)C(=O)O (configuration not stated) [N-ACETYLTRYPTOPHAN]
15.4 min	NC(CCCC(N)C(=O)O)C(=O)O (configuration not stated) [LL-2-6-DIAMINOHEPTANEDIOATE]
1.81 min	O=C(O)c1ccccc1O [SALICYLATE]
1.91 min	CC(=O)CC(=O)[O-] [ACETOACETATE]

The next lines start with the molecule.

SMILES	LC retention time
Nc1nc2c(ncn2C2CC(O)C(COP(=O)(O)OP(=O)(O)OP(=O)(O)O)O2)c(=O)[nH]1 (configuration not stated) [DGTP]	15.7 min
CCCCCCCCC=CCCCCCCCC(=O)OCC(O)COP(=O)(O)OCCN (configuration not stated) [18-1_LysoPE]	10.3 min
NC(N)=NCC(=O)O [GUANIDINOACETATE]	14 min
COc1cc(C=CC(=O)O)ccc1O [FERULATE]	1.94 min
CC12CCC(O)CC1CCC1C2C(O)CC2(C)C1CCC2(O)C(=O)CO (configuration not stated)	1.91 min
c1ccc2ncccc2c1 [QUINOLINE]	2.14 min
NC(=O)c1ccc[n+](C2OC(COP(=O)(O)OP(=O)(O)OCC3OC(n4cnc5c(=O)[nH]cnc54)C(O)C3O)C(O)C2O)c1 (configuration not stated) [NICOTINAMIDE HYPOXANTHINE DINUCLEOTIDE]	14.8 min
O=c1[nH]c(=O)c2[nH]cnc2[nH]1 [XANTHINE]	8.96 min
NCC(=O)CCC(=O)O [5-AMINOLEVULINATE]	13.8 min
O=C([O-])C=CC(=O)[O-] [MALEATE]	2.17 min
CC(=O)OC(CC(=O)[O-])C[N+](C)(C)C (stereo not drawn) [o-acetyl-l-carnitine hydrochloride]	13 min
NCCc1ccc(O)cc1 [TYRAMINE]	11.3 min
CCCCCCCCCCCCCCCCCC(=O)O [STEARATE]	1.56 min
CCCCCCCCCC(=O)OCC(COP(=O)([O-])OCC[N+](C)(C)C)OC(=O)CCCCCCCCC (configuration not stated) [DIDECANOYL-GLYCEROPHOSPHOCHOLINE]	10.6 min
NCC(O)c1ccc(O)c(O)c1 (configuration not stated) [NORADRENALINE]	13.4 min
O=C(O)C(O)c1ccc(O)c(O)c1 (configuration not stated) [3-4 DIHYDROXYMANDELATE]	10.3 min
CNC(CCC(=O)O)C(=O)O (configuration not stated) [N-METHYLGLUTAMATE]	13.9 min
CC(=O)NCCCCN [N-ACETYLPUTRESCINE]	12.9 min
CC1NCCc2cc(O)c(O)cc21 (configuration not stated) [SALSOLINOL]	11.1 min
CC12CCC(=O)C=C1CCC1C2C(O)CC2(C)C1CCC2(O)C(=O)CO (configuration not stated) [CORTISOL]	1.89 min

SMILES	LC retention time
CNC(=O)c1cccnc1 [N methyl nicotinamide]	2.15 min
CCCC=O [BUTANAL]	1.71 min
O=C(O)c1ccc[nH]1 [PYRROLE-2-CARBOXYLATE]	2.08 min
NC(=O)C1=CN(C2OC(COP(=O)(O)OP(=O)(O)OCC3OC(n4cnc5c(N)ncnc54)C(OP(=O)(O)O)C3O)C(O)C2O)C=CC1 (configuration not stated) [NADPH]	15 min
CC(=O)NC(CSSCC(NC(C)=O)C(=O)O)C(=O)O (configuration not stated) [N-ACETYLCYSTEINE-dimere]	13.2 min
O=C/C=C/c1ccccc1 [Trans-Cinnamaldehyde]	1.57 min
NC(CCC(=O)O)C(=O)O (configuration not stated) [GLUTAMATE]	14.2 min
CC(CCC(=O)O)C1CCC2C3CCC4CC(O)CCC4(C)C3CC(=O)C12C (configuration not stated) [5b-cholanic acid-3a-OL-12-ONE]	1.81 min
NCCCCC(=O)O [5-AMINOPENTANOATE]	12.6 min
CC=CC=CC(=O)O [SORBATE]	1.8 min
Cn1c(=O)[nH]c(=O)c2c1[nH]c(=O)n2C [3-7-Dimethyluric acid]	2.24 min
CC(CCC(=O)O)C1CCC2C3C(O)C(O)C4CC(O)CCC4(C)C3CCC12C (configuration not stated) [5b-cholanic acid-3a-6a-7a-TRIOL]	2.19 min
CC12CCC(=O)C=C1CCC1C2C(O)CC2(C)C(C(=O)CO)CCC12 (configuration not stated) [CORTICOSTERONE]	1.74 min
Nc1ncnc2c1ncn2C1OC(COP(=O)(O)O)C(OP(=O)(O)O)C1O (configuration not stated) [ADENOSINE 3'-5'-DIPHOSPHATE]	14.9 min
NCC[Se][Se]CCN [SELENOCYSTAMINE]	16.9 min
NC(CSCC(=O)O)C(=O)O (configuration not stated) [S-CARBOXYMETHYLCYSTEINE]	14.4 min
NCCc1ccccc1 [PHENETHYLAMINE]	10.2 min
NCC(O)CCC(N)C(=O)O (configuration not stated) [5-HYDROXYLYSINE]	16.2 min
CC(=O)NC(CC(N)=O)C(=O)O (configuration not stated) [N-ACETYLASPARAGINE]	9.75 min
NCC(O)c1ccc(O)cc1 (configuration not stated) [P-OCTOPAMINE]	12.4 min

From the RepoRT retention time repository
